Among the data in patent publication US4988681A, “Phosphinic acid derivatives” (Banyu Pharmaceutical Co., Ltd., priority 1988, dated 1991) are AUC and concentration values, retold here.

The nature of this data set: Pharmacokinetic evaluation: plasma concentration in rats. It counts as in vivo, Male SD rats. To be noted: plasma, rat; for AUC: trapezoidal rule; for concentration at 0.5 h: 1/2 h; for concentration at 0.25 h: 1/4 h; for concentration at 5 min: 1/12 h.
[1] abbreviates: iv 10 mg/kg (cilastatin dose not given).

As usually defined, the AUC is concentration integrated over time. Read a high AUC as more exposure.

Under setting [1], `CC(C)CP(=O)(O)C/C(=C\C1CCCCC1)C(=O)O` [Compound No. 2, (Z)-3-cyclohexyl-2-(hydroxyisobutylphosphinoyl)methylpropenoic acid] gave an AUC of 162000 ng·h/mL, a concentration at 0.5 h of 53700 ng/mL, a concentration at 0.25 h of 60700 ng/mL and a concentration at 5 min of 84900 ng/mL. Where the note is “po 10 mg/kg”, the AUC was determined as 24300 ng·h/mL, the concentration at 0.5 h was 6800 ng/mL, the concentration at 0.25 h came to 6600 ng/mL and the concentration at 5 min was determined as 3300 ng/mL. For the setting “po 10 mg/kg”, this molecule yielded a concentration at 1 h of 5400 ng/mL, a concentration at 2 h of 3800 ng/mL, a concentration at 4 h of 2100 ng/mL and a concentration at 6 h of 1200 ng/mL. Where the note is “iv 10 mg/kg (cilastatin dose not given), N.D.: below the detection limit”, this molecule came in with a concentration at 1 h of 42400 ng/mL. Under “iv 10 mg/kg”, the concentration at 2 h was 21800 ng/mL, the concentration at 4 h is 10500 ng/mL and the concentration at 8 h stood at 2500 ng/mL. Where the note is “iv 10 mg/kg, N.D.: below the detection limit”, this molecule yielded a concentration at 6 h of 5400 ng/mL. Under “po 10 mg/kg, N.D.: below the detection limit”, this molecule displayed a concentration at 8 h of 400 ng/mL.
